Usually Kd stands for the free concentration of one partner at which half of the binding sites on the other are occupied at equilibrium, for simple one-to-one binding.

The values below come from article PMC8904520, “Characterization of a small-molecule inhibitor targeting NEMO/IKKβ to suppress colorectal cancer growth” (Signal Transduction and Targeted Therapy, 2022).

SMILES strings stand for the structures.

The subject of test [1] is LoVo/IKKβmut (D738A/W739A/W741A) xenograft. Briefly: LoVo/IKKβmut xenograft mouse model. Also on record: dose or concentration left out as unconfirmed. The class given is in vivo, athymic nude mice. How it is done:
Female athymic nude mice aged 5 weeks were purchased from Beijing Vital River Laboratory Animal Technology Co., Ltd., and kept in the SPF Laboratory Animal Center of Dalian Medical University (Dalian, China). All animals were given free access to sterilized food and water and were habituated for 7 days before the experiments. All procedures were carried out in strict accordance with the recommendations established by the Animal Care and Ethics Committee of Dalian Medical University as well as the guidelines promulgated in the U.S. National Institutes of Health Guide for the Care and Use of Laboratory Animals. LoVo cells (LoVo/wt and LoVo/ mut, 5×10^6 in 100 μL PBS) were injected subcutaneously near the axillary fossa of each nude mouse. Two weeks later, when the formed tumor reached 3-4mm, the animals were divided randomly into three groups with 5 mice in each group. […] The tumors were measured with a caliper once every two days, and the tumor volume was calculated using the formula V = 1/2 (width^2 × length). The body weight of the animals was also recorded. After treatment with SHK for 15 days, all experimental mice were sacrificed and the tumors from each mouse were excised and their weight was measured. […] The stained samples were examined under a Leica DM 4000B fluorescence microscope equipped with a digital camera. […]

A further test has as its target T1, MBP-IKKβ (701–745) (Homo sapiens, UniProt O14920).
T1 construct: made in house; host or cells: E. coli BL21(DE3)
T1 sequence (O14920 701-745): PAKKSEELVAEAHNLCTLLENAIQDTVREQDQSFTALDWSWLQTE
Put plainly: MST binding assay to IKKβ.

In another test the test system is CCD841 CoN cells. Briefly: CCK-8 cell viability assay, normal colonic epithelial cells. Format: cell-based, human. The following applies: 0.5–5 μM, 48 h. How it is done: Cell viability was determined using the CCK-8 assay. Briefly, 5×10³ cells were seeded into 96-well culture plates, allowed to adhere for overnight, and then changed to fresh medium containing various concentrations of SHK (0, 0.5, 1, 2 and 5 µM) dissolved in DMSO (final concentration, 0.1%). After incubation for 48 h, the CCK-8 reagent was added, and the absorbance was measured at 450 nm using an EnSpire® Multimode Plate Reader (Perkin Elmer, USA). The cell viability in the vehicle control groups was defined as 100%. Each assay was carried out in triplicate.
Background: Tetrazolium assays rely on reduction of a dye to a coloured formazan, in cell work by metabolically active cells.

The test system of test [2] is COX-2, iNOS, IL-6, TNF-α in LoVo and RKO cells. Put plainly: Expression of inflammatory markers by qPCR and western blotting. The class given is cell-based, human. How it is done:
Protein lysates were separated by electrophoresis in a 10% acrylamide sodium dodecyl sulfate-polyacrylamide minigel (SDS-PAGE), electrophoretically transferred to a PVDF membrane, and immunoblotted with specific antibodies. The protein bands were detected by enhanced chemiluminescence. The protein concentrations were determined using a BCA protein assay kit (Beyotime Biotechnology, China). The experiments were carried out at least three times.
Background: Real-time PCR tracks product formation cycle by cycle.

Test [3] relates to NO release in LoVo and RKO cells. Put plainly: Nitric oxide production assay (Griess reagent). The class given is cell-based, human. How it is done: After overnight culture in a 96-well plate (1 × 10^4 cells in 100 μL medium per well), the cells were pre-treated with SHK for 1 hour and lipopolysaccharide for an additional 24 hours. The culture supernatant from each well was collected at the end of the experiment and used to measure NO production. The NO production was determined using a commercial NO assay kit on the basis of the Griess reaction (S0021, Beyotime Institute of Biotechnology, Shanghai, China) according to the manufacturer’s instructions.

Test [4] deals with T2, NEMO/IKKβ interaction (GST-NEMO1–196 / biotinylated IKKβ peptide) (Homo sapiens, UniProt Q9Y6K9).
T2 construct: made in house; host or cells: E. coli BL21(DE3) (GST-NEMO)
T2 sequence (Q9Y6K9 1-196): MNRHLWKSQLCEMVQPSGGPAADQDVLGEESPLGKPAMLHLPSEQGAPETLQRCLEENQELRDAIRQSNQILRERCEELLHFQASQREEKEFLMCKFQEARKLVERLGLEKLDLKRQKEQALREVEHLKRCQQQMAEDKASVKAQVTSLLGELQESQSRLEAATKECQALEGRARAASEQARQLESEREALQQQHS
Briefly: FRET assay of NEMO/IKKβ binding. The following applies: 10 nM GST-NEMO1–196, 200 nM biotinylated IKKβ peptide, read-out: IC50 for impairing NEMO/IKKβ interaction. How it is done: A FRET assay was used to detect the effects of SHK on NEMO/IKKβ binding. 10 nM GST-NEMO1–196 was bound to 200 nM biotinylated IKKβ peptide in binding buffer (50 Mm Tris-HCl, 150 mM NaCl, and 1x cocktail, pH 7.4), and increasing amounts of SHK were titrated into the mixture, incubated for 30 min at room temperature. The detection agent (50 nM streptavidin-conjugated APC and 10 nM LANCE^TM Europium-W1024 labeled anti-GST, Perkin Elmer) was incubated for 30 min at room temperature, and the FRET signal was read on a multifunctional microplate reader (BioTek Synergy NEO).

Test [5] relates to NF-κB luciferase activity in LoVo cells. Put plainly: NF-κB dual-luciferase reporter assay. Conditions: 0.5 and 1 µM, 48 h. Format: cell-based, human. How it is done:
LoVo cells in a 6-well plate were transfected with the pNFκB-luc plasmid (Beyotime), which contains the luciferase coding region downstream of an NFκB-responsive promoter, using Lipofectamine 2000 Reagent (Invitrogen, Grand Island, NY, USA). After transfection, the cells were treated with SHK (0.5 and 1µM) for 48 h. The dual-luciferase reporter assay system (Promega, Madison, WI) was used to measure the changes of luciferase activity in the cell lysates. The firefly luciferase activities were normalized to the corresponding Renilla luciferase activities. All values are shown as means ± SD of triplicate experiments.

The test system of a further test is LoVo and RKO cells. Put plainly: Colony formation assay. Format: cell-based, human. How it is done: Detached cells (1 × 10^3 per well) were seeded into six-well plates containing 2 mL of growth medium with 10% FBS and cultured for 24 h. Then, the medium was removed and the cells were treated with various concentrations of SHK. After 24 h, the cells were washed with PBS and supplemented with fresh growth medium. The cells were routinely incubated for about two weeks until colonies were large enough to be visualized. Then, the colonies were stained with 0.1% crystal violet and counted.

With `CC(C)=CC[C@@H](O)C1=CC(=O)c2c(O)ccc(O)c2C1=O` [SHK, Shikonin], in test [1], the “inhibitory effect on tumor growth in LoVo/IKKβ mutant group compared with LoVo/wt” value is “significantly weakened”. Moreover, the Kd on MBP-IKKβ (701–745) came to 15.2 ± 4 µM. Also, in the test on CCD841 CoN cells, the “growth inhibitory effect in normal colonic epithelial cells” value was “absent”. Also, the “expression of inflammatory markers COX-2, iNOS, IL-6, TNF-α” value in test [2] is listed as “suppressed the expression of inflammatory markers”. For the same molecule, in test [3], the “release of NO” value is recorded as “dramatically decreased”. Moreover, in test [4], the IC50 turned out to be 0.231 ± 0.00939 µM. Also, the NF-κB luciferase activity result in test [5] is reported as “significant inhibition”. Besides, the colony formation result in the test on LoVo and RKO cells is given as “colony formation suppression”.
